Where a name gives a salt, the structure may show the parent alone. Read-outs that look alike come from different tables or passages of the source.
Tests used:
Type in all cases: cell-based
[1] = tested on: Escherichia coli NIHJ JC-1; test: Antibacterial Test (agar dilution M.I.C.); conditions: NIHJJC1, Table 5, 37° C., 18 hours
Experimental: (§1) A compound under test was dissolved in aseptic water to prepare a two fold dilution series. Each 1 milliliter of the solution was taken in a petri dish. Nine ml of infusion agar medium (Difco) was added to the solution, thereby preparing the agar plate for test. A pre-culture of each test strain in Tripticase soy broth medium (BBL) at 37° C. for 18 hours was streaked on the above-mentioned agar plate, and the said agar plate was incubated at 37° C. for 18 hours to determine the minimal inhibitory concentration (M.I.C.).

[2] = tested on: Streptococcus hemolyticus Y-73-5; test: Antibacterial Test (agar dilution M.I.C.); conditions: Streptococcus pyogenes, Y735; Table 5; 37° C., 18 hours
Experimental: as §1

Proteus mirabilis OM-1 = test: Antibacterial Test (agar dilution M.I.C.); conditions: OM1, Table 5, 37° C., 18 hours
Experimental: as §1

[3] = tested on: Staphylococcus aureus 13-6; test: Antibacterial Test (agar dilution M.I.C.); conditions: 136, Table 5, 37° C., 18 hours
Experimental: as §1

[4] = tested on: Klebsiella pneumonial NO-1; test: Antibacterial Test (agar dilution M.I.C.); conditions: NO1, Table 5, 37° C., 18 hours
Experimental: as §1

Pseudomonas aeruginosa = test: Antibacterial Test (agar dilution M.I.C.); conditions: Table 5, 37° C., 18 hours
Experimental: as §1

Escherichia coli E-15 = test: Antibacterial Test (agar dilution M.I.C.); conditions: E15, Table 5, 37° C., 18 hours
Experimental: as §1

[5] = tested on: Salmonella typhimurium 1406; test: Antibacterial Test (agar dilution M.I.C.); conditions: Salmonella enterica, Table 5, 37° C., 18 hours
Experimental: as §1

[6] = tested on: Staphylococcus aureus 209-P JO-1; test: Antibacterial Test (agar dilution M.I.C.); conditions: Table 5, 37° C., 18 hours
Experimental: as §1

[7] = tested on: Candida tropicalis AHU 3071; test: Antifungal test when a serum is added; conditions: 27° C, read-out: M.I.C. of serum added
Experimental: (§2) Respective agar plates were prepared by dissolving compounds under test in aseptic water to make a two fold dilution series, taking each 1 milliliter of said diluted solutions and 9 ml of Sabouraud medium into a petri dish, and sufficiently admixing the same.
(§3) On the other hand, an inoculum was prepared by cultivating an examined fungus (microorganism) on the Sabouraud slant medium and suspending two loopful of the incubated fungus in 10 ml of sterilized physiological saline water.
(§4) One loopful of the inoculum was streaked on the above-mentioned agar plate. After the agar plate was incubated at a defined temperature for a predetermined period of time to determine the minimal inhibitory concentration (M.I.C.).
(§5) Minimal inhibitory concentration (M.I.C.) was determined by preparing the agar plate medium in the same manner of the preceding pharmacological test 1, except for the addition of the horse serum. The concentration of the component in the medium was finally corrected, so that it may amount to the concentration of the component when the horse serum was not added.
(§6) Incubation temperature: […]

[8] = tested on: Candida albicans IFM 4080; test: Antifungal test when a serum is added; conditions: 27° C, read-out: M.I.C. of serum added
Experimental: as §2, §3, §4, §5, §6

Candida Krusei AHU 3993 = test: Antifungal test when a serum is added; conditions: Pichia kudriavzevii, 27° C, read-out: M.I.C. of serum added
Experimental: as §2, §3, §4, §5, §6

[9] = tested on: Candida albicans Yu-1200 IFM 4020; test: Antifungal test when a serum is added; conditions: 27° C, read-out: M.I.C. of serum added
Experimental: as §2, §3, §4, §5, §6

[10] = tested on: gram-negative bacteria such as Escherichia coli NIHJ and Escherichia coli E-15; test: Antibacterial Test (summary); conditions: 18 h, 37° C., read-out: minimal inhibitory concentration
Experimental: as §1

[11] = tested on: Staphylococcus aureus 209-P, Staphylococcus aureus 13-6 and Streptococcus pyogenes; test: Antibacterial Test (summary); conditions: 37° C., 18 hours; read-out: minimal inhibitory concentration
Experimental: as §1

[12] = tested on: Candida albicans NAKAGAWA IFM 4017; test: Antifungal Test (agar dilution M.I.C.); conditions: Candida albicans
Experimental: as §2, §3, §4
(§7) Incubation temperature:
(§8) Incubation time: 3 days (72 hours) and
(§9) Incubation time: 3 days (72 hours)
(§10) activity incubation conditions:
(§11) Incubation time 3 days (72 hours)
(§12) Incubation time 7 days (168 hours)
(§13) Incubation time 2 days (48 hours)

[13] = tested on: Candida albicans AHU 3656; test: Antifungal Test (agar dilution M.I.C.); conditions: for MIC: Candida albicans
Experimental: as §2, §3, §4, §7, §8, §9, §10, §11, §12, §13

[14] = tested on: Candida albicans Yu-1200 IFM 4020; test: Antifungal Test (agar dilution M.I.C.); conditions: Candida albicans
Experimental: as §2, §3, §4, §7, §8, §9, §10, §11, §12, §13

Candida albicans = test: Anti-candida activity (summary)
Experimental: as §2, §3, §4, §9

[15] = tested on: yeast-like fungi such as Candida, Cryptococcus; test: Antifungal Test (summary)
Experimental: as §2, §3, §4

SMILES: N=C(N)c1cccc(OCC2CCC(COc3cccc(C(=N)N)c3)CC2)c1 (centres unmarked) [Compound A, 1,4-Bis-(m,m'-amidinophenoxymethyl)-cyclohexane-dihydrochloride]
- MIC [1]: 100 µg/mL
- MIC [2]: 6.25 µg/mL
- MIC (Proteus mirabilis OM-1): > 200 µg/mL
- MIC [3]: 6.25 µg/mL
- MIC [4]: 200 µg/mL
- MIC (Pseudomonas aeruginosa): > 200 µg/mL
- MIC (Escherichia coli E-15): 200 µg/mL
- MIC [5]: 200 µg/mL
- MIC [6]: 3.13 µg/mL
- MIC ([7]; AHU3071, 72 h, 0 % horse serum, 3 days): 3.13 µg/mL
- MIC ([7]; AHU3071, 72 h, 10 % horse serum, 3 days): 6.25 µg/mL
- MIC ([7]; AHU3071, 72 h, 30 % horse serum, 3 days): 12.5 µg/mL
- MIC ([7]; AHU3071, 168 h, 0 % horse serum, 7 days): 3.13 µg/mL
- MIC ([7]; AHU3071, 168 h, 10 % horse serum, 7 days): 6.25 µg/mL
- MIC ([7]; AHU3071, 168 h, 30 % horse serum, 7 days): 12.5 µg/mL
- MIC ([8]; IFM4080, 72 h, 0 % horse serum, 3 days): 3.13 µg/mL
- MIC ([8]; IFM4080, 72 h, 10 % horse serum, 3 days): 12.5 µg/mL
- MIC ([8]; IFM4080, 72 h, 30 % horse serum, 3 days): 12.5 µg/mL
- MIC ([8]; IFM4080, 168 h, 0 % horse serum, 7 days): 6.25 µg/mL
- MIC ([8]; IFM4080, 168 h, 10 % horse serum, 7 days): 12.5 µg/mL
- MIC ([8]; IFM4080, 168 h, 30 % horse serum, 7 days): 12.5 µg/mL
- MIC (Candida Krusei AHU 3993; 72 h, 0 % horse serum, 3 days): > 100 µg/mL
- MIC (Candida Krusei AHU 3993; 72 h, 10 % horse serum, 3 days): 200 µg/mL
- MIC (Candida Krusei AHU 3993; 72 h, 30 % horse serum, 3 days): 100 µg/mL
- MIC (Candida Krusei AHU 3993; 168 h, 0 % horse serum, 7 days): > 100 µg/mL
- MIC (Candida Krusei AHU 3993; 168 h, 10 % horse serum, 7 days): > 200 µg/mL
- MIC (Candida Krusei AHU 3993; 168 h, 30 % horse serum, 7 days): 100 µg/mL
- MIC ([9]; YU1200IFM4020, 72 h, 0 % horse serum, 3 days): < 1.56 µg/mL
- MIC ([9]; YU1200IFM4020, 72 h, 10 % horse serum, 3 days): 6.25 µg/mL
- MIC ([9]; YU1200IFM4020, 72 h, 30 % horse serum, 3 days): 25 µg/mL
- MIC ([9]; YU1200IFM4020, 168 h, 0 % horse serum, 7 days): 3.13 µg/mL
- MIC ([9]; YU1200IFM4020, 168 h, 10 % horse serum, 7 days): 6.25 µg/mL
- MIC ([9]; YU1200IFM4020, 168 h, 30 % horse serum, 7 days): 25 µg/mL
- MIC [10]: 100 to 200 µg/mL
- MIC [11]: 3.13 to 6.25 µg/mL
- MIC ([12]; 48 h, Table 3, 37° C., 2 days): 0.8 µg/mL
- MIC ([12]; 72 h, Table 1, 27° C., 3 days incubation): 3.13 µg/mL
- MIC ([12]; 72 h, Table 2, 37° C., 3 days (72 hours)): 1.56 µg/mL
- MIC ([12]; 72 h, Table 3, 27° C., 3 days): 3.13 µg/mL
- MIC ([12]; 72 h, Table 3, 37° C., 3 days): 1.56 µg/mL
- MIC ([12]; 168 h, Table 1, 27° C., 7 days incubation): 3.13 µg/mL
- MIC ([12]; 168 h, Table 3, 27° C., 7 days): 3.13 µg/mL
- MIC ([13]; AHU3656, 48 h, Table 3, 37° C., 2 days): 3.13 µg/mL
- MIC ([13]; AHU3656, 72 h, Table 3, 27° C., 3 days): 3.13 µg/mL
- MIC ([13]; AHU3656, 168 h, Table 3, 27° C., 7 days): 6.25 µg/mL
- M.I.C. ([13]; Table 1, 27° C., 3 days incubation): 3.13 µg/mL
- M.I.C. ([13]; Table 1, 27° C., 7 days incubation): 6.25 µg/mL
- M.I.C. ([13]; Table 2, 37° C., 3 days (72 hours)): 3.13 µg/mL
- M.I.C. ([13]; Table 3, 37° C., 3 days): 3.13 µg/mL
- MIC ([14]; YU1200IFM4020, 48 h, Table 3, 37° C., 2 days): 0.8 µg/mL
- MIC ([14]; YU1200IFM4020, 72 h, Table 1, 27° C., 3 days incubation): < 1.56 µg/mL
- MIC ([14]; YU1200IFM4020, 72 h, Table 2, 37° C., 3 days (72 hours)): 0.8 µg/mL
- MIC ([14]; YU1200IFM4020, 72 h, Table 3, 27° C., 3 days): 1.56 µg/mL
- MIC ([14]; YU1200IFM4020, 72 h, Table 3, 37° C., 3 days): 0.8 µg/mL
- MIC ([14]; YU1200IFM4020, 168 h, Table 1, 27° C., 7 days incubation): 3.13 µg/mL
- MIC ([14]; YU1200IFM4020, 168 h, Table 3, 27° C., 7 days): 3.13 µg/mL
- anti-candida activity compared with nystatin (Candida albicans): more excellent anti-candida activity than that of the nystatin
- antifungal activity [15]: excellent antifungal activity
- influence of incubation temperature on antifungal activity ([15]; 27° C. and 37° C.): not influenced by the incubation temperature
